# Reference: article PMC12005229, “Final results from the phase Ia/Ib study of the novel bromodomain and extra-terminal domain inhibitor, BI 894999, in patients with advanced solid tumors or diffuse large B-cell lymphoma” (ESMO Open, 2025)
# Tested on: patients with advanced solid tumors (SCLC, CRC, mCRPC, NUT carcinoma)
# Experiment: phase Ib expansion: tumor response (RECIST 1.1), PFS, OS
# Type: in vivo, human
# Conditions: for Best overall response: complete response / Best overall response: not evaluable / Best overall response: partial response / Best overall response: progressive disease / Best overall response: stable disease / Disease control / Median PFS / Objective response / Median OS: phase Ib
# Description: PFS was measured for the period from the start of treatment to the occurrence of progressive disease or death. Tumor response was measured using RECIST 1.1[28] for patients with solid tumors and RECIL 2017[29] for those with DLBCL. OS was assessed in patients with NUT carcinoma; the OS status was to continue until 12 months after the end of the study.
# Supplementary Table 1. […]
# • Objective response (OR), defined as complete response (CR) or partial response (PR) with tumor assessment during treatment period for each schedule according to Response Evaluation Criteria in Solid Tumors (RECIST) version 1.1. For DLBCL patients, a minor response according to Response Evaluation Criteria in Lymphoma (RECIL) 2017 was not part of an OR […]
# • Progression-free survival (PFS), defined from date of start of BI 894999 to the date of objective disease progression or death, whichever was earlier, with tumor assessment every 2 cycles (every 6 weeks for Schedule B if no delays or as close as possible to the end of the second of the 2 cycles of treatment if there was a delay) during the treatment period
# Radiological PFS with tumor assessment by bone scan every 4 cycles for mCRPC patients with non-measurable disease by RECIST 1.1 […]
# • Overall survival in patients with NUT carcinoma. This was for patients in the trial after approval of […]
# The overall survival status was to continue until 12 months after the end of trial […]
# AUC0–24, area under the plasma concentration–time curve over the 24-hour dosing interval; AUCτ, ss , area under the plasma concentration–time curve over the dosing interval τ at steady state; AE, adverse event; Cmax, maximal exposure; Cma x , s s , maximal exposure at steady state; DLBCL, diffuse large B- cell lymphoma; DLT, dose-limiting toxicity; mCRPC, metastatic castration-resistant prostate cancer; NUT, nuclear protein in […]
smiles,measurement,setting,value
CNc1nc(-c2nc3ccc(N4CCN(C)CC4)cc3n2Cc2ccccc2)cn2c(C)nnc12 [BI 894999],patients with SD,CRC,2 n
same,observed objective response rate,NUT carcinoma,< 10%
same,patients not assessable,"NUT carcinoma, 42 patients",19.0%
same,patients with SD,"NUT carcinoma, 42 patients",31.0%
same,patients with complete response,"NUT carcinoma, 42 patients",1 n
same,patients with confirmed CR,"NUT carcinoma, 42 patients",2.4%
same,patients with disease control,"NUT carcinoma, 42 patients",16 patients
same,patients with progressive disease,"NUT carcinoma, 42 patients",42.9%
same,patients with responses,"NUT carcinoma, 42 patients",7.1%
same,duration of response (DOR) of confirmed CR,"NUT carcinoma, one patient",253 days
same,duration of response (DOR) of confirmed PR,"NUT carcinoma, one patient",588 days
same,patients with SD,SCLC,1 n
same,patients with SD,mCRPC,2 n
same,duration of response (DOR) of confirmed PR,"mCRPC, one patient",46 days
same,patients not assessable,other solid tumor types n = 37,24.3%
same,patients with SD,other solid tumor types n = 37,13.5%
same,patients with confirmed PR (mCRPC),other solid tumor types n = 37,2.7%
same,patients with progressive disease,other solid tumor types n = 37,59.5%
same,patients with confirmed CR (BOR),phase Ib n = 79,1.3%
same,Best overall response: complete response,CRC,0 (0.0) n (%)
same,Best overall response: not evaluable,CRC,2 (14.3) n (%)
same,Best overall response: partial response,CRC,0 (0.0) n (%)
same,Best overall response: progressive disease,CRC,10 (71.4) n (%)
same,Best overall response: stable disease,CRC,2 (14.3) n (%)
same,Disease control,CRC,2 (14.3) n (%)
same,Median PFS,CRC,5.6 weeks
same,Objective response,CRC,0 (0.0) n (%)
same,Best overall response: complete response,NUT carcinoma (Schedule B),0 (0.0) n (%)
same,Best overall response: not evaluable,NUT carcinoma (Schedule B),3 (15.0) n (%)
same,Best overall response: partial response,NUT carcinoma (Schedule B),1 (5.0) n (%)
same,Best overall response: progressive disease,NUT carcinoma (Schedule B),9 (45.0) n (%)
same,Best overall response: stable disease,NUT carcinoma (Schedule B),7 (35.0) n (%)
same,Disease control,NUT carcinoma (Schedule B),8 (40.0) n (%)
same,Median OS,NUT carcinoma (Schedule B),6.6 weeks
same,Median PFS,NUT carcinoma (Schedule B),6.9 weeks
same,Objective response,NUT carcinoma (Schedule B),1 (5.0) n (%)
same,Best overall response: complete response,NUT carcinoma (Schedule C),1 (4.5) n (%)
same,Best overall response: not evaluable,NUT carcinoma (Schedule C),5 (22.7) n (%)
same,Best overall response: partial response,NUT carcinoma (Schedule C),1 (4.5) n (%)
same,Best overall response: progressive disease,NUT carcinoma (Schedule C),9 (40.9) n (%)
same,Best overall response: stable disease,NUT carcinoma (Schedule C),6 (27.3) n (%)
same,Disease control,NUT carcinoma (Schedule C),8 (36.4) n (%)
same,Median OS,NUT carcinoma (Schedule C),15.4 weeks
same,Median PFS,NUT carcinoma (Schedule C),7.8 weeks
same,Objective response,NUT carcinoma (Schedule C),2 (9.1) n (%)
same,Median OS,NUT carcinoma total,15.4 weeks
same,Best overall response: complete response,SCLC,0 (0.0) n (%)
same,Best overall response: not evaluable,SCLC,3 (25.0) n (%)
same,Best overall response: partial response,SCLC,0 (0.0) n (%)
same,Best overall response: progressive disease,SCLC,8 (66.7) n (%)
same,Best overall response: stable disease,SCLC,1 (8.3) n (%)
same,Disease control,SCLC,1 (8.3) n (%)
same,Median PFS,SCLC,5.6 weeks
same,Objective response,SCLC,0 (0.0) n (%)
same,Best overall response: complete response,mCRPC,0 (0.0) n (%)
same,Best overall response: not evaluable,mCRPC,4 (36.4) n (%)
same,Best overall response: partial response,mCRPC,1 (9.1) n (%)
same,Best overall response: progressive disease,mCRPC,4 (36.4) n (%)
same,Best overall response: stable disease,mCRPC,2 (18.2) n (%)
same,Disease control,mCRPC,3 (27.3) n (%)
same,Median PFS,mCRPC,11.9 weeks
same,Objective response,mCRPC,1 (9.1) n (%)
same,Best overall response: complete response,total,1 (1.3) n (%)
same,Best overall response: not evaluable,total,17 (21.5) n (%)
same,Best overall response: partial response,total,3 (3.8) n (%)
same,Best overall response: progressive disease,total,40 (50.6) n (%)
same,Best overall response: stable disease,total,18 (22.8) n (%)
same,Disease control,total,22 (27.8) n (%)
same,Median PFS,total,6.9 weeks
same,Objective response,total,4 (5.1) n (%)
